Measured values reported in ChEMBL document CHEMBL1123299, “New antiarrhythmic agents. 2,2,5,5-Tetramethyl-3-pyrroline-3-carboxamides and 2,2,5,5-tetramethylpyrrolidine-3-carboxamindes” (J Med Chem, 1986).

Assays:
[1] = Acute toxicity determined after intravenal administration in mice; type: organism-based; details: mouse, in vivo, iv
[2] = species on record: Rattus norvegicus; experiment: Relative potency with reference to quinidine; type: functional
[3] = test system: Rattus norvegicus; experiment: Effective dose against aconitine-induced arrhythmia after intravenal administration in anesthetized rats; type: functional
[4] = test system: Rattus norvegicus; experiment: Tested for incidence of arrhythmias in rats after a intravenal administration of 0.5 mg/kg expressed as no. of positive cases out of no. of tested cases (10); type: functional
[5] = test system: Cavia porcellus; experiment: Amount of ouabain needed for production of ventricular extra-systoles at a dose of 1 mg/kg (iv given 5 min prior) in guinea pig; type: functional, Cardiac ventricle
[6] = test system: Cavia porcellus; experiment: Amount of ouabain needed for production of ventricular arrhythmias that causes death in guinea pig by cardiac arrest at a dose of 1 mg/kg iv given 5 min prior; type: functional, Cardiac ventricle
[7] = test system: Cavia porcellus; experiment: Amount of ouabain needed for production of ventricular fibrillation at a dose of 1 mg/kg (iv given 5 min prior) in guinea pig; type: functional, Cardiac ventricle
[8] = (§1) Acute toxicity in secondary evaluation when administered intravenously (iv) against aconitine-induced arrhythmias in anesthetized rats; type: organism-based; details: rat, in vivo
[9] = test system: Rattus norvegicus; experiment: Incidence of arrhythmias in rats after a intravenal administration at 4 mg/kg, expressed as no. of positive cases out of no. of tested cases (10); type: functional
[10] = test system: Cavia porcellus; experiment: Amount of ouabain needed for production of ventricular fibrillation at a dose of 4 mg/kg (iv given 5 min prior) in guinea pig; type: functional, Cardiac ventricle
[11] = test system: Cavia porcellus; experiment: Amount of ouabain needed for production of ventricular arrhythmias that causes death in guinea pig by cardiac arrest at a dose of 4 mg/kg iv given 5 min prior; type: functional, Cardiac ventricle
[12] = test system: Cavia porcellus; experiment: Amount of ouabain needed for production of ventricular extra-systoles at a dose of 4 mg/kg (iv given 5 min prior) in guinea pig; type: functional, Cardiac ventricle
[13] = test system: Cavia porcellus; experiment: Amount of ouabain needed for production of ventricular fibrillation at a dose of 2 mg/kg (iv given 5 min prior) in guinea pig; type: functional, Cardiac ventricle
[14] = test system: Cavia porcellus; experiment: Amount of ouabain needed for production of ventricular extra-systoles at a dose of 2 mg/kg (iv given 5 min prior) in guinea pig; type: functional, Cardiac ventricle
[15] = test system: Rattus norvegicus; experiment: Tested for incidence of arrhythmias in rats after a intravenal administration of 4 mg/kg expressed as no. of positive cases out of no. of tested cases (10); type: functional
[16] = test system: Cavia porcellus; experiment: Amount of ouabain needed for production of ventricular arrhythmias that causes death in guinea pig by cardiac arrest at a dose of 2 mg/kg iv given 5 min prior; type: functional, Cardiac ventricle
[17] = test system: Rattus norvegicus; experiment: as §1; type: functional, organism-based
[18] = test system: Rattus norvegicus; experiment: Acute toxicity in secondary evaluation when administered intravenously (iv) against aconitine-induced arrhythmias in anesthetized rats. Relative potency with respect to quinidine.; type: functional, organism-based
[19] = test system: Rattus norvegicus; experiment: (§2) Acute toxicity in secondary evaluation when administered intravenously (iv) against aconitine-induced arrhythmias in anesthetized rats.; type: functional, organism-based
[20] = as §2; type: organism-based; details: rat, in vivo

Row | Structure (SMILES) | LD50 [1] [mg/kg] | Relative potency [2] | ED150 [3] [mg/kg] | No. of positive cases [9] | Average dose [10] [mg/kg] | Average dose [11] [mg/kg] | Average dose [12] [mg/kg] | also measured
1 | Cc1cccc(C)c1OCC(C)NC(=O)C1CC(C)(C)NC1(C)C (configuration not stated) | 2 | 30.5 | 0.39 |  |  |  |  | No. of positive cases [4]: 10
2 | Cc1cccc(C)c1OCC(C)NC(=O)C1=CC(C)(C)NC1(C)C (configuration not stated) | 11 | 12.8 | 0.93 |  |  |  |  | Average dose [5]: 0.2534 mg/kg; Average dose [6]: 0.3476 mg/kg; Average dose [7]: 0.3166 mg/kg; No. of positive cases [4]: 10
3 | CC1(C)C=C(C(=O)NCCCN2C(=O)c3ccccc3C2=O)C(C)(C)N1[O] |  |  |  | 0 |  |  |  | LD50 [8]: 187 mg/kg
4 | Cc1cccc(C)c1OCC(C)N (configuration not stated) [MEXILETINE] |  |  |  |  | 0.2459 | 0.2861 | 0.1855 | 
5 | CCN(CC)CC(=O)Nc1c(C)cccc1C [LIDOCAINE] |  |  |  |  | 0.2477 | 0.2702 | 0.2001 | 
6 | C=CCc1ccc(OCC(=O)NCCCNC(=O)C2=CC(C)(C)NC2(C)C)c(OC)c1 |  | 8.5 |  |  |  |  |  | Average dose [13]: 0.3536 mg/kg; Average dose [14]: 0.2266 mg/kg; No. of positive cases [15]: 10; Average dose [16]: 0.3988 mg/kg
7 | Cc1cccc(C)c1OCC(C)NC(=O)C1CC(C)(C)N([O])C1(C)C (configuration not stated) |  |  |  | 6 |  |  |  | ED150 [17]: 9.2 mg/kg; Relative potency [18]: 1.3; LD50 [19]: 21 mg/kg
8 | CC.Cc1cccc(C)c1NC(=O)CNC(=O)C1CC(C)(C)N(O)C1(C)C (configuration not stated) |  |  |  | 0 |  |  |  | LD50 [20]: > 200 mg/kg
9 | Cc1cccc(C)c1NC(=O)C(C)N (configuration not stated) [TOCAINIDE] |  |  |  |  | 0.3581 | 0.3928 | 0.236 | 
10 | CCCc1ccc(OCC(=O)NCCCNC(=O)C2=CC(C)(C)NC2(C)C)c(OC)c1 | 12 | 4.1 | 2.9 |  |  |  |  | No. of positive cases [15]: 10
